{"source": "patent US20240285755A1", "about": "“Adjuvants” (GlaxoSmithKline Biologicals SA, priority 2021, published 2024)", "tested_on": "HSV-1 gE/gI", "assay": "Total anti-HSV-1 gE/gI cross-reactive IgG antibodies by ELISA in serum of immunised mice", "assay_type": "in vivo, CB6F1 mice", "conditions": "0.1 ug LNP/SAM i.m. days 0 & 28, adjuvanted with 2.22 ug of STING agonist at day+0, +1 or +3; 21PII (day 49); FIG. 3", "description": "Female CB6F1 inbred mice aged 6-8 weeks old were randomly assigned to study groups (n=8 gr1-10 (groups 1-10) and n=4/gr11 (group 11)) and kept under pathogen-free conditions. Mice ([…]) were intramuscularly (i.m.) immunized, in the gastrocnemius muscle, on days 0 and 28 with 0.1ug of LNP-formulated SAM (25 uL volume) comprising a heterodimer of the HSV-2 gE and gI proteins (LNP/SAM-gE_P317R/gI) and were injected, in the same muscle, with different doses of STING agonist (0.25, 0.74 or 2.22ug) either at the same time (day+0) or 1 or 3 days after each of the two SAM immunizations. […]\nQuantification of the total HSV-1 gE/gI-specific IgG antibodies was performed using indirect ELISA. […]\nThe plates were then washed four times with washing buffer and 2 times with deionised water and incubated for 15 min at RT (room temperature) with 100 uL/well of a solution of 75% single-component TMB peroxidase ELISA substrate diluted in sodium citrate 0.1M pH5.5 buffer. Enzymatic color development was stopped with 100 uL of […] sulfuric acid 1M (H2SO4) per well and the plates were read at an absorbance of 450/620 nm using an ELISA reader. Optical densities (OD) were captured and analysed. […] Antibody titer in the samples was calculated by interpolation of the standard curve. […]"}
{"smiles": "CCn1nc(C)cc1C(=O)/N=c1\\[nH]c2cc(C(N)=O)cc(OC)c2n1C/C=C/Cn1/c(=N/C(=O)c2cc(C)nn2CC)[nH]c2cc(C(N)=O)cc(OCCCOP(=O)(O)O)c21", "note": "[STING, 3-(((E)-6-carbamoyl-3-((E)-4-((E)-5-carbamoyl-2-((1-ethyl-3-methyl-1H-pyrazole-5-carbonyl)imino)-7-methoxy-2,3-dihydro-1H-benzo[d]imidazol-1-yl)but-2-en-1-yl)-2-((1-ethyl-3-methyl-1H-pyrazole-5-carbonyl)imino)-2,3-dihydro-1H-benzo[d]imidazol-4-yl)oxy)propyl]", "values": [{"measurement": "GM titers of anti-HSV-1 gE/gI cross reactive IgG antibody relative to unadjuvanted control", "value": "increased GM titers of anti-HSV-1 gE/gI cross reactive IgG antibody in all groups"}]}
